By IC50 is commonly meant the midpoint of a concentration-inhibition curve.

Where two headings read alike, the source gives them in different places.

The results in this text go back to paper PMC8309759, “A Dual-Sensor-Based Screening System for In Vitro Selection of TDP1 Inhibitors” (Sensors (Basel, Switzerland), 2021).

The target of experiment [1] is T1, topoisomerase 1 (TOP1) (Homo sapiens, UniProt P11387).
T1 sequence (P11387 2-765): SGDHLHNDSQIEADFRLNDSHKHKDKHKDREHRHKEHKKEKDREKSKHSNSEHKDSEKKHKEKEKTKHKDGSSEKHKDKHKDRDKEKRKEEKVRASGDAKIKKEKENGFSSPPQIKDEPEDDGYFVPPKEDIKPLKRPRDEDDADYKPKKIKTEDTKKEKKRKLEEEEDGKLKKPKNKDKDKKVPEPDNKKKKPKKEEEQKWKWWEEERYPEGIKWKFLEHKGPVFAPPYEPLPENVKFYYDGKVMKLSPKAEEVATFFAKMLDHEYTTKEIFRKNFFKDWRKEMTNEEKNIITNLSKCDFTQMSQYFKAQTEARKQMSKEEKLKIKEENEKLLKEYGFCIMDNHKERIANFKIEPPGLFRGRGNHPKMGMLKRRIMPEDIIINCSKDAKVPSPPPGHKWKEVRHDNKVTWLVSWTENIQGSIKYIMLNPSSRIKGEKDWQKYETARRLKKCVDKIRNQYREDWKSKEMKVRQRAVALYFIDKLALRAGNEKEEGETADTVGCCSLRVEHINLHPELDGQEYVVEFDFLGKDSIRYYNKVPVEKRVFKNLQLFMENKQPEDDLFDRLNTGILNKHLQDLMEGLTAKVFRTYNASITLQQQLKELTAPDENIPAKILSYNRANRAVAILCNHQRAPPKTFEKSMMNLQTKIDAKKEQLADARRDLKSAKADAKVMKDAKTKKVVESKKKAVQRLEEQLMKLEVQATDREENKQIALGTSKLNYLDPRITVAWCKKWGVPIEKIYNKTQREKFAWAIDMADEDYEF
As to the kind of experiment: REEAD cleavage-ligation assay with purified TOP1, […] CPT. The class given is biochemical.

Experiment [2] concerns the target tyrosyl-DNA phosphodiesterase 1 (TDP1) (Homo sapiens, UniProt Q9NUW8). Nature of the experiment: fluorescent hairpin DNA sensor (ATTO488/BHQ1) assay with purified human TDP1, 13-point dose response. It counts as biochemical.

tyrosyl-DNA phosphodiesterase 1 (TDP1), sequence (Q9NUW8 whole entry): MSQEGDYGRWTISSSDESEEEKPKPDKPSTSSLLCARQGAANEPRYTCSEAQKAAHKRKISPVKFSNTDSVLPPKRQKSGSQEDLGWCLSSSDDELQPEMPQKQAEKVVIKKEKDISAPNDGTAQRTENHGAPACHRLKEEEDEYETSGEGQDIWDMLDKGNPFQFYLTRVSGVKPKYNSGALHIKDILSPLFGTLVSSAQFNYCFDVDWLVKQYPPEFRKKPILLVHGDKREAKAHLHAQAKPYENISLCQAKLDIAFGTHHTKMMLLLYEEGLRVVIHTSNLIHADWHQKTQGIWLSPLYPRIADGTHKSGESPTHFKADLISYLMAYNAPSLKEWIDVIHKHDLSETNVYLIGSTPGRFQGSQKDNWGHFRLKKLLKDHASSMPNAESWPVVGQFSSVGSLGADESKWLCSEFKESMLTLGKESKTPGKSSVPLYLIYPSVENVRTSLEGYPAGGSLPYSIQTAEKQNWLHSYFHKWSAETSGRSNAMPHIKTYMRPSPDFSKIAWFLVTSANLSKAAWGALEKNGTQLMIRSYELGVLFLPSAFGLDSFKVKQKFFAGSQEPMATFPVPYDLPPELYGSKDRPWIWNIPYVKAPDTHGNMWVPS

Turning to `CC[C@@]1(O)C(=O)OCc2c1cc1n(c2=O)Cc2cc3ccccc3nc2-1` [CPT, camptothecin], the “REEAD cleavage-ligation assay with purified TOP1, 80 μM CPT” value in experiment [1] is “CPT control is a positive control for TOP1 inhibition”.

`COc1ccc(-c2cc(-c3ccc([N+](=O)[O-])cc3)nc3cccnc23)cc1` [NAF-15]: the IC50 in experiment [2] (read-out: IC50) was determined as 37.8 µM. Compound `FC(F)(F)c1ccc(C2CC(c3ccccc3)c3cccc(P(=S)(c4ccccc4)c4ccccc4)c3N2)cc1` (stereo not shown) [PSTHQ-2] gave an IC50 in experiment [2] of 4.28 µM. Still for that read-out and setting: the result for `O=[N+]([O-])c1ccc(C2CC(c3ccccc3)c3cccc(P(=S)(c4ccccc4)c4ccccc4)c3N2)cc1` (stereo not shown) [PSTHQ-13] reads 13.1 µM.
